Results reported in patent publication US10004678B2, “Anti-dandruff compositions, and methods of use thereof” (LUCAS MEYER COSMETICS CANADA INC., priority 2013, dated 2018).

Assays:
Assay type in all cases: cell-based
Settings in all cases: w/v concentration, 0.25% is 2.5 g (dry weight)/L
[1] = test system: M. furfur (strain 1634.86, Pasteur Institute); assay: Malassezia species growth inhibition (MIC), M. furfur
Description: (§1) Determination of the effectiveness of the solution prepared as described in Example 1 on 3 different Malassezia species was determined by measuring the lowest concentration of a molecule for which there is no visible growth of the microorganism strain (MIC). The Malassezia species used were M. furfur (strain 1634.86, Pasteur Institute), M. globose (strain IP 2387.96, Pasteur Institute), and M. restricta (strain 7877, Centralbureau voor Schimmerlcultures). Results are presented as a w/v concentration—i.e., 0.04% is 0.4 g/L; 0.078% is 0.78 g/L, 0.156% is 1.56 g/L and 0.25% is 2.5 g (dry weight)/L.

[2] = test system: M. globosa (strain IP 2387.96, Pasteur Institute); assay: Malassezia species growth inhibition (MIC), M. globosa
Description: as §1

[3] = test system: M. restricta (strain 7877, Centralbureau voor Schimmerlcultures); assay: Malassezia species growth inhibition (MIC), M. restricta
Description: as §1

SMILES | MIC (lowest concentration with no visible growth) [1] | MIC (lowest concentration with no visible growth) [2] | MIC (lowest concentration with no visible growth) [3]
Cc1cc(CC(C)CC(C)(C)C)n(O)c(=O)c1.NCCO (stereo not drawn) [Piroctone olamine] | 0.078% | 0.156% | 0.156%
S=[Se]=S [Selenium disulfide] | 0.04% | 0.04% | 0.04%
